≈ marks a conversion by molar mass, not a printed value.
Tests used:
[1] = Density (bulk, tapped, tablet); type: physicochemical
Procedure: Next, the granulations are fed to a Manesty layer press fitted with two hoppers, one hopper is filled with the slow-layer granulation, the other hopper is filled with the fast-layer granulation. A bilayer tablet dosage form is then compressed by first forming a 690 mg second layer, then a 230 mg first layer is pressed in release retaining relation to the second layer. The first layer and second layers are pressed together under a pressure head of two tons. This manufacturing process produces the bilayer dosage form. […] The final composition of the second layer comprises 58 wt % racemic (±) ibuprofen, 15 wt % hydroxypropylmethylcellulose having a 242,000 molecular weight, 25 wt % hydroxypropylmethylcellulose having a 9,200 molecular weight and 2 wt % stearic acid.

Crystal lattice energy = type: physicochemical

Compound	bulk density [1] [g/cc]	tablet density [1] [g/cc]	tapped density [1] [g/cc]	crystal lattice energy (Crystal lattice energy) [joules/g]	solubility (physchem; artificial gastric juice) [µg/mL]	solubility (physchem; artificial intestinal juice) [µg/mL]	solubility (physchem; water) [µg/mL]
CC(C)Cc1ccc(C(C)C(=O)O)cc1 (racemic) [racemic ibuprofen]	0.328	1.052	0.483	117	79 (≈ 383 µM)	5910 (≈ 28600 µM)	82 (≈ 398 µM)
CC(C)Cc1ccc([C@H](C)C(=O)O)cc1 [S(+) ibuprofen]	0.277	1.038	0.391	90.3	131 (≈ 635 µM)	6980 (≈ 33800 µM)	134 (≈ 650 µM)
